The text below walks through data of patent publication US11344534B2, “Cholinergic agonism for the treatment of pancreatic cancer” (priority 2017, dated 2022).

One experiment concerns KPC mice. Briefly: KPC mice with established PDAC treated with gemcitabine with or without bethanechol. It counts as in vivo, mouse. The conditions noted are these: KPC mice. An excerpt: Next, the role of cholinergic signaling in advanced pancreatic cancer was investigated using the genetically engineered KPC (K-Ras^+/LSL-G12D;p53^+/R172H;Pdx-1-Cre) mouse model, which develops ductal adenocarcinoma by 17-19 weeks (Olive et al., 2009, Hingorani et al., 2005).
K-Ras^+/LSL-G12D, p53^+/R172H, and Pdx-1-Cre mice were provided by Dr. Kenneth Olive (Columbia University). M1RKO mice were purchased from the Jackson Laboratory. KC mice and KPC mice were crossed with M1RKO mice. For several experiments, KC mice received pyloroplasty with or without vagotomy at 8 weeks and KC+VxPP mice were treated with or without bethanechol (400 μg/ml) after surgery immediately. They were sacrificed at 20 weeks. In addition, KPC mice were treated with gemcitabine biweekly and with or without bethanechol when the tumor size of 3-5 mm detected using ultrasound. They were sacrificed when the mice were moribund. For liver metastatic experiments, WT type C57/B6 mice received spleen injection and hemi-splenectomy. […] They were sacrificed when the mice were moribund.
Next, the role of cholinergic signaling in established PDAC was investigated using the KPC mouse model, which develops PDAC at a median age of 17-19 weeks^2, 29. KPC mice with pancreatic tumors that measured 3-5 mm in diameter on ultrasound were randomized to treatment with gemcitabine (GEM) alone, or GEM+bethanechol (FIG. 8I).
LSL-Kras^+/LSL-G12D, LSL-Trp53^+/R172H, and Pdx1-Cre mice were bred by Dr. Kenneth P. Olive and co-workers. Chrm1KO mice (C57BL/6-Chrm1tm1 Stl/J, (M1RKO) mice^1 were purchased from the Jackson Laboratory. KC mice and KPC mice were crossed with M1RKO mice. In the vagotomy experiments, KC mice received pyloroplasty with or without vagotomy at 8 weeks, and some KC+VxPP mice were treated with bethanechol ([…] in drinking water) immediately after surgery and then sacrificed at 20 weeks. KPC mice in treatment studies were palpated weekly for tumors in the pancreas. Once a tumor was suspected, KPC mice were screened by VEVO 2100—Ultrasound Imaging System (FUJIFILM VisualSonics) for pancreatic cancer. KPC mice were treated with gemcitabine, given by i.p. injection 100 mg/kg biweekly, with or without bethanechol, when a tumor size of 3-5 mm was detected using ultrasound. Mice were sacrificed when the mice were moribund. NOD/SCID mice were implanted with Panc1 cells subcutaneously and sacrificed at 30 days after implantation. For liver metastatic experiments, WT type C57/B6 mice received a splenic injection of labeled Panc02 cells, followed by hemi-splenectomy. The mice were then divided into three groups. […] Mice were then sacrificed when moribund. At necropsy, hepatic metastases that could clearly be identified as tumor nodules on gross inspection were separated. All animal studies and procedures were approved by the IACUC committee at Columbia University. All mice were bred under specific pathogen free conditions. Comparisons were made with age- and sex-matched control animals.
CD44, p-EGFR, p-PI3K, p-ERK, and Ki67 positive cells were quantified in at least five high power fields from at least 3 mice per group. Total cells per field were counted via morphometric analysis using ImageJ and the ratio of positive cells to total cell number calculated.

For experiment [1], the system named is Kras^+/LSL-G12D mutant spheres. Briefly: 3D Matrigel sphere culture of Kras mutant (Ad-Cre) pancreatic acinar cells. It counts as cell-based, mouse. The conditions noted are these: for number of spheres / size of spheres: day 5, pilocarpine 1 mM, scopolamine 10 μM, McN-34A 50 μM, pirenzepine 50 μM, vs controls; for sphere formation and growth of Kras mutant spheres: oncogenic K-Ras allele activated by adeno-Cre virus. As to the method:
Cholinergic stimulation could in theory promote cancer indirectly through effects on stromal cells, or directly through effects on pancreatic epithelial cells. To determine whether cholinergic stimulation promoted tumor development in part through muscarinic receptors on cancer cells, the sphere forming capacity of K-Ras^+/LSL-G12D mutant pancreatic acinar cells was assessed in a 3D Matrigel culture system, with or without muscarinic stimulation. K-Ras^+/LSL-G12D mutant spheres were generated from K-Ras^+/LSL-G12D pancreatic acinar cells by treatment with adenoviral delivered Cre (Ad-Cre).
3D cultures were performed as described previously (Wescott et al., 2009). Organoids were cultured for 5 days before analysis. Adenoviral delivered Cre (Ad-Cre) was added to the cultures and medium was changed after 12 hours. […] Sphere size and […] were analyzed using ImageJ software.
To determine whether cholinergic stimulation suppresses tumor development in part through specific muscarinic receptors on cancer cells, the sphere forming capacity of Kras^+/LSL-G12D pancreatic acinar cells in a 3D Matrigel culture system in the absence and presence of muscarinic agonists and antagonists was assessed. Kras^+/LSL-G12D mutant spheres were generated from Kras^+/LSL-G12D mice by delivery of an adenoviral Cre (Ad-Cre).
3D cultures were performed as described previously^18. Organoids were cultured for 5 days before analysis. Adenoviral delivered Cre (Ad-Cre) was added to the cultures and medium was changed after 12 hours. […] Sphere size and number were analyzed using ImageJ software.

Experiment [2] relates to Organoid cultures derived from LSL-K-Ras^G12D pancreata not treated by an Adeno-Cre virus. It counts as cell-based. The conditions noted are these: no Adeno-Cre virus (Kras not activated).
The subject of experiment [3] is human PDAC cell lines (MiaPaca2, Panc1). Briefly: MTT assay, human PDAC cell lines. It counts as cell-based. The conditions noted are these: for proliferation (MTT assay): 72 hours, 0.5% FBS medium. On the technique in general: Tetrazolium dyes change colour on reduction, which living cells bring about.
Method: (§1) Cell proliferation in each cell line was assessed with a 3-(4,5-dimethylthiazol-2yl)-2,5-diphenyltetrazolium bromide (MTT) assay kit (Sigma) in accordance with the manufacturer's instructions. 3×10^3 cells were grown in 96-well plate to around ˜70% confluent, changed the 0.5% FBS medium, added the drugs respectively and incubated them for further 72 hrs incubation in a typical CO2 incubator (˜20% O2). Treated cells were rinsed twice with PBS, incubated in 10 ll MTT solution for 4 hr at 37° C., and 100 uL DMSO was added to each well. The absorbance of each well was measured at 570 nm using Tilter-Tech 96-well multiscanner (Becton Dickinson, Heidelberg, Germany). The relative number of viable cells compared with the number of cells without drug treatment was expressed as percent cell viability using the following formula:
(§2) Cell proliferation in each cell line was assessed with a 3-(4,5-dimethylthiazol-2yl)-2,5-diphenyltetrazolium bromide (MTT) assay kit (Sigma) in accordance with the manufacturer's instructions. 3×10^3 cells were grown in 96-well plate to ˜70% confluency, the media was changed to 0.5% FBS medium, the respective drugs were added, and they were incubated for an additional 72 hours in a CO2 incubator (˜5% CO2). Treated cells were rinsed twice with PBS, incubated in 10 ul MTT (5 mg/ml PBS) solution for 4 hours at 37° C., and 100 uL DMSO was then added to each well. The absorbance of each well was measured at 570 nm using a Tilter-Tech 96-well multiscanner (Becton Dickinson, Heidelberg, Germany). The relative number of viable cells compared with the number of cells without drug treatment was expressed as percent cell viability using the following formula: cell viability (%)=A570 of treated cells/A570 of untreated cells.
Experiment [4] relates to murine PDAC cell lines (Panc02, K8282). The experiment in a line: MTT assay, murine PDAC cell lines. It counts as cell-based, mouse. The conditions noted are these: for proliferation (MTT assay): 72 hours, 0.5% FBS medium.
Method: as §1, §2
The test system of another experiment is human Panc1 cells. Briefly: Western blot of EGFR/MAPK and PI3K/AKT signaling, Panc1. It counts as cell-based. The conditions noted are these: for phosphorylation of EGFR, BRAF, ERK1/2, PI3K and AKT kinases (western blot): 72 hours; for ratios of p-EGFR/EGFR, p-BRAF/BRAF, p-ERK/ERK, p-PI3K/PI3K and p-AKT/AKT (densitometry): single agent alone.
The next experiment has as its system murine K8282 cells. Briefly: Western blot of EGFR/MAPK and PI3K/AKT signaling, K8282. It counts as cell-based, mouse. The conditions noted are these: for phosphorylation of EGFR, BRAF, ERK1/2, PI3K and AKT kinases (western blot): 72 hours; for ratios of p-EGFR/EGFR, p-BRAF/BRAF, p-ERK/ERK, p-PI3K/PI3K and p-AKT/AKT (densitometry): single agent alone. On the technique in general: In western blotting, separated proteins are transferred to a membrane and probed.

Experiment [5] has as its system CHRM1. The experiment in a line: qRT-PCR of muscarinic receptor expression, human PDAC cell lines. It counts as cell-based. The conditions noted are these: human PDAC cell lines (MiaPaca2 and Panc1), compared to control.
The test system of experiment [6] is Chrm1. Briefly: qRT-PCR of muscarinic receptor expression, murine PDAC cell lines. It counts as cell-based, mouse. The conditions noted are these: murine PDAC cell lines (Panc02 and K8282), compared to control. (In general: Real-time PCR tracks product formation cycle by cycle.)

Molecules are shown by their SMILES. Entries after “also recorded” stand apart in the source; their conditions may differ.

Method for human Panc1 cells: (§3) To analyze EGFR and the MAPK and PI3K-Akt pathway in human and murine pancreatic cancer cell lines, cells were grown in 12-well plate to around ˜70% confluent, changed the 0.5% FBS medium, added the drugs respectively and incubated them for further 72 hrs incubation in a typical CO2 incubator (˜20% O2). After removing the medium, cells were washed twice with PBS, and protein extraction was performed on ice using RIPA buffer with protease inhibitor (Complete) (Roche) cocktail and phosphatase inhibitor (phosSTOP) (Roche). Protein samples were subsequently separated in 10% Bis-Tris Gel NuPAGE® electrophoresis using MES SDS Running Buffer (Invitrogen, CA, USA). After transfer to nitrocellulose, membranes were blocked with 5% BSA, and samples were probed with the following primary antibodies: p-EGFR (Cell Signaling), EGFR (Cell Signaling), p-BRAF (Cell Signaling), BRAF (Cell Signaling), p-ERK1/2 (phosphorylated p44/42 MAPK) (Thr202/Tyr204) (Cell Signaling), ERK1/2 (p44/42 MAPK) (Thr202/Tyr204) (Cell Signaling), p-PI3K (Cell Signaling), PI3K (Cell Signaling), p-Akt (Cell Signaling), Akt (Cell Signaling), and β-actin (Cell Signaling) followed by horseradish peroxidase-coupled secondary antibody. Immunoreactive bands were visualized using 5-bromo-4-chloro-3-indolyl phosphate/nitro blue tetrazolium and bands were quantified with ImageJ.
(§4) To analyze EGFR, MAPK and PI3K-AKT pathways in human and murine pancreatic cancer cell lines, cells were grown in 12-well culture plates to ˜70% confluency. The medium was then changed to 0.5% FBS medium, the respective drugs were added, and they were incubated for an additional 72 hours in a CO2 incubator (˜5% CO2). After removing the medium, cells were washed twice with PBS, and protein extraction was performed on ice using RIPA buffer with protease inhibitor (Complete, Roche) cocktail and a phosphatase inhibitor (phosSTOP, Roche). Protein samples were subsequently separated by 10% Bis-Tris Gel NuPAGE® electrophoresis using MES SDS Running Buffer (Invitrogen, CA, USA). After transfer to nitrocellulose, membranes were blocked with 5% BSA, and samples were probed with the following primary antibodies: p-EGFR (Cell Signaling), EGFR (Cell Signaling), p-BRAF (Cell Signaling), BRAF (Cell Signaling), p-ERK1/2 (phosphorylated p44/42 MAPK) (Thr202/Tyr204) (Cell Signaling), ERK1/2 (p44/42 MAPK) (Thr202/Tyr204) (Cell Signaling), p-PI3K (Cell Signaling), PI3K (Cell Signaling), p-AKT (Cell Signaling), AKT (Cell Signaling), and β-actin (Cell Signaling) followed by horseradish peroxidase-coupled secondary antibody. Immunoreactive bands were visualized using 5-bromo-4-chloro-3-indolyl phosphate/nitro blue tetrazolium and bands were quantified with ImageJ.
Method for murine K8282 cells: as §3, §4

As to `Nc1ccn([C@@H]2O[C@H](CO)[C@@H](O)C2(F)F)c(=O)n1` [GEM], the overall survival was 29 days in the experiment with KPC mice (GEM with or without bethanechol) and 29 days in the experiment with KPC mice (tumors 3-5 mm at enrollment, GEM biweekly i.p. with or without bethanechol).
Turning to `C[N+](C)(C)CC#CCOC(=O)Nc1cccc(Cl)c1.[Cl-]` [McN-34A], in [1], the number of spheres entry is on record as “significantly fewer”; the size of spheres entry is “smaller”; the “sphere formation and growth of Kras mutant spheres” value (“sphere formation and growth” below) is “suppressed”. Further, the “sphere forming capacity / growth of WT spheres” value in [2] is “increased”. For the same molecule, the “proliferation (MTT assay)” value in experiment [3] is “suppressed”. Further, the “increase in proliferation due to muscarinic antagonists” value in [3] (agonist added to antagonist) is reported as “blocked; also recorded: inhibited to some extent”. The “proliferation (MTT assay)” value in experiment [4] is “suppressed”. Further, in experiment [4] (agonist added to antagonist), the “increase in proliferation due to muscarinic antagonists” value was “blocked; also recorded: inhibited to some extent”. In addition, in the experiment with human Panc1 cells, the “phosphorylation of EGFR, BRAF, ERK1/2, PI3K and AKT kinases (western blot)” value (“phosphorylation of EGFR, BRAF” for short) is reported as “significantly less phosphorylated”; the “ratios of p-EGFR/EGFR, p-BRAF/BRAF, p-ERK/ERK, p-PI3K/PI3K and p-AKT/AKT (densitometry)” value (“ratios of p-EGFR/EGFR, p-BRAF/BRAF” below) was “significantly decreased”. In the experiment on murine K8282 cells, the “phosphorylation of EGFR, BRAF” value is “significantly less phosphorylated”; the “ratios of p-EGFR/EGFR, p-BRAF/BRAF” value was “significantly decreased”.
For the molecule `CN1CCN(CC(=O)N2c3ccccc3C(=O)Nc3cccnc32)CC1` [pirenzepine], in experiment [1], the number of spheres result is listed as “significantly more”; the size of spheres result is “larger”; the “sphere formation and growth” value was “stimulated”. Moreover, the “sphere forming capacity / growth of WT spheres” value in experiment [2] was “significantly prevents”. Besides, in experiment [3], the “proliferation (MTT assay)” value is on record as “increased; also recorded: stimulated”. For the same molecule, the “proliferation (MTT assay)” value in experiment [4] is listed as “increased; also recorded: stimulated”. In the experiment with human Panc1 cells, the “phosphorylation of EGFR, BRAF” value is reported as “significantly more phosphorylated”; the “ratios of p-EGFR/EGFR, p-BRAF/BRAF” value is “increased”. Moreover, in the experiment on murine K8282 cells, the “phosphorylation of EGFR, BRAF” value is on record as “significantly more phosphorylated”; the “ratios of p-EGFR/EGFR, p-BRAF/BRAF” value is on record as “increased”.
For the molecule `CN1[C@@H]2C[C@@H](OC(=O)[C@H](CO)c3ccccc3)C[C@H]1[C@@H]1O[C@@H]12` [scopolamine], the number of spheres entry in experiment [1] is listed as “significantly more; also recorded: increased”. Moreover, the size of spheres result in experiment [1] was “larger”. Further, the “sphere formation and growth” value in experiment [1] was “increase”. In addition, the “proliferation (MTT assay)” value was “increased; also recorded: stimulated” in experiment [3] and “increased” in experiment [4]. The Chrm1 expression result in the experiment with CHRM1 [5] and in the experiment on Chrm1 [6] was “increased; also recorded: higher” throughout. The “phosphorylation of EGFR, BRAF” value with human Panc1 cells and in the experiment with murine K8282 cells was “significantly more phosphorylated” each time.
